Test results reported in publication PMC11535068, “Design, in silico studies and biological evaluation of novel chalcones tethered triazolo[3,4-a]isoquinoline as EGFR inhibitors targeting resistance in non-small cell lung cancer” (Scientific Reports, 2024).

Key:
[1] = biological target: T1, total EGFR (Homo sapiens, UniProt P00533); test: EGFR inhibition assay on A549 cells (cloud clone SEA757Hu kit); type: cell-based
T1 construct: endogenous in cells; host or cells: A549
Procedure: (§1) EGFR inhibition assay was performed on A549 cancer cells using cloud clone product SEA757Hu 96 Ki, according to manufacturer’s instructions protocol. The homogeneous time-resolved fluorescence assay method was used to assess the inhibitory activity of 3e and 3f against EGFR^WT, EGFR^T790M and EGFR^L858R. The EGFR proteins (EGFR^WT, EGFR^T790M and EGFR^L858R) were obtained from Signalchem (BC V6V 2J2, Canada). ATP and other chemicals were obtained from Sigma. […] After 30 min, the reaction was stopped by adding detection reagents containing EDTA.

[2] = test system: HT-29; test: MTT antiproliferative assay; settings: Homo sapiens, HT-29, 24 h, read-out: IC50 HT-29
Procedure: (§4) Cell line cells were purchased from the American Type Culture Collection (ATCC, Manassas, VA) and were cultured according to the supplier’s instructions. […] The media was changed every 48 h, and the cells were split when 80–90% confluence was reached. Cell viability was evaluated by MTT assay.

[3] = test system: PC3; test: MTT antiproliferative assay; settings: Homo sapiens, PC-3, 24 h, read-out: IC50 PC3
Procedure: as §4

[4] = test system: MCF-7; test: MTT antiproliferative assay; settings: Homo sapiens, MCF7, 24 h, read-out: IC50 MCF-7
Procedure: as §4

[5] = test system: A549 lung cancer cells; test: Annexin V-FITC/PI flow cytometric apoptosis analysis; type: cell-based, human; settings: A549, 24 h, 3e 2.3 µM, 3f 1.15 µM (IC50)
Procedure: (§2) Quantitation of DNA content was evaluated using the Annexin V-FITC Apoptosis Detection kit (BioVision, CA, USA). Dual staining for Annexin-V and PI allows the discrimination between live cells, necrotic cells, and cells in different phases of apoptosis. […] Then, cells were collected and washed with 1X phosphate-buffered saline. The cells were stained in the dark with annexin V-FITC and propidium iodide in a binding buffer and analyzed using the flow cytometer. The cell cycle profiles were analysed using MultiCycle software (Phoenix Flow Systems, San Diego, CA)[60].

[6] = test system: A549 lung cancer cells; test: Cell cycle analysis (DNA content, flow cytometry); type: cell-based, human; settings: A549, 24 h, at IC50
Procedure: as §2

[7] = test system: HCT-116; test: MTT antiproliferative assay; settings: Homo sapiens, HCT-116, 24 h, read-out: IC50 HCT-116
Procedure: as §4

[8] = test system: CDK4; test: RT-qPCR gene expression in A549 cells; type: cell-based, human; settings: A549, 24 h, vs vehicle cells, beta-actin housekeeping gene
Procedure: (§3) The real-time polymerase chain reaction (RT-qPCR) technique was used to evaluate the gene expression. A panel of eight genes (P53, BAX, Caspase-3, Caspase-8, Caspase-9, MMP1, CDK4, and Bcl2) was chosen to estimate the compounds’ ability to induce apoptosis. A549 cancer cells were treated with 3e and 3f compounds for 24 h before total RNA extraction. While untreated A549 cancer cells were utilized as a negative control. One-step RT-qPCR was performed using the iScript™ One-Step RT-PCR kit with SYBR®. The primer pairs sequences for each gene used are mentioned in Table 7. Control reactions were formed […] or without the reverse transcriptase enzyme.

[9] = test system: Caspase 8; test: RT-qPCR gene expression in A549 cells; type: cell-based, human; settings: A549, 24 h, vs vehicle cells, beta-actin housekeeping gene
Procedure: as §3

[10] = test system: MMP1; test: RT-qPCR gene expression in A549 cells; type: cell-based, human; settings: A549, 24 h, vs vehicle cells, beta-actin housekeeping gene
Procedure: as §3

[11] = test system: Caspase 9; test: RT-qPCR gene expression in A549 cells; type: cell-based, human; settings: A549, 24 h, vs vehicle cells, beta-actin housekeeping gene
Procedure: as §3

[12] = test system: Bcl2; test: RT-qPCR gene expression in A549 cells; type: cell-based, human; settings: A549, 24 h, vs vehicle cells, beta-actin housekeeping gene
Procedure: as §3

[13] = test system: Caspase 3; test: RT-qPCR gene expression in A549 cells; type: cell-based, human; settings: A549, 24 h, vs vehicle cells, beta-actin housekeeping gene
Procedure: as §3

[14] = test system: P53; test: RT-qPCR gene expression in A549 cells; type: cell-based, human; settings: A549, 24 h, vs vehicle cells
Procedure: as §3

[15] = test system: Bax; test: RT-qPCR gene expression in A549 cells; type: cell-based, human; settings: A549, 24 h, vs vehicle cells
Procedure: as §3

[16] = test system: A549; test: MTT antiproliferative assay; settings: Homo sapiens, A549, 24 h, read-out: IC50 A549
Procedure: as §4

[17] = biological target: T2, EGFR^L858R (Homo sapiens, UniProt P00533, L858R); test: Homogeneous time-resolved fluorescence EGFR-TK assay; type: biochemical; settings: selectivity index
T2 construct: purchased Signalchem
Procedure: as §1

[18] = biological target: T3, EGFR^T790M (Homo sapiens, UniProt P00533, T790M); test: as above; type: biochemical; settings: selectivity index
T3 construct: purchased Signalchem
Procedure: as §1

[19] = test system: WI-38; test: MTT assay on normal lung cell line; settings: Homo sapiens, WI-38, 24 h, read-out: IC50 WI-38
Procedure: as §4

COc1cc2c(cc1OC)C1N(CC2)C(C(=O)C=Cc2cn(-c3ccccc3)nc2-c2ccccc2)=NN1c1ccc([N+](=O)[O-])cc1 (stereo not drawn) [Compound 3f, 1-(8,9-Dimethoxy-1-(4-nitrophenyl)-1,5,6,10b-tetrahydro-[1,2,4]triazolo[3,4-a]isoquinolin-3-yl)-3-(1,3-diphenyl-1H-pyrazol-4-yl)prop-2-en-1-one]
Fold more efficient in inhibiting EGFR than lapatinib ([1]; total EGFR IC50 ratio to Lapatinib): 1.91 fold | IC50 ([1]; total EGFR, A549 cells): 23 nM | IC50 [2]: 2410 ± 410 nM | IC50 [3]: 22.16 ± 0.18 µM | IC50 [4]: 5.53 ± 0.33 µM | Apoptosis Late (%) ([5]; vehicle 0.21%): 15.24% | Apoptosis Early (%) ([5]; vehicle 0.49%): 3.08% | Apoptosis Total (%) ([5]; vehicle 0.70%): 18.32% | Necrosis (%) ([5]; vehicle 1.58%): 9.89% | DNA content Pre-G1% ([6]; vehicle 2.28%): 28.21% | DNA content G2/M% ([6]; vehicle 8.99%): 39.84% | DNA content S% ([6]; vehicle 44.26%): 26.42% | DNA content G0–G1% ([6]; vehicle 46.75%): 33.74% | melting point: 224 to 226 °C | IC50 [7]: 4.61 ± 0.28 µM | CDK4 gene expression fold change [8]: 0.29 fold | Caspase 8 gene expression fold change [9]: 3.48 fold | MMP1 gene expression fold change [10]: 0.31 fold | Caspase 9 gene expression fold change [11]: 9.32 fold | Bcl-2 gene expression fold change [12]: 0.13 fold | Caspase 3 gene expression fold change [13]: 11.26 fold | p53 gene expression (in words) [14]: significantly upregulated | Bax gene expression (in words) [15]: significantly upregulated | IC50 [16]: 1150 ± 380 nM | SI^a = EGFR^WT IC50/ EGFR^L858R IC50 [17]: 25.95 | SI^b = EGFR^WT IC50/ EGFR^T790M IC50 [18]: 4.52 | IC50 [19]: 1.578 ± 0.00023 mM
